Results reported in patent publication US9687529B2, “Method of controlling coagulation” (Duke University, priority 2011, dated 2017).
Strand notation (5' to 3'): a small letter for the sugar, then the base; units joined by * are phosphorothioate-linked, units joined directly phosphodiester-linked; [ ] holds rarer units or linkages, { } end groups; capitals alone tell only the bases. r = 2'-OH (RNA); f = 2'-fluoro

Key:
[1] = system: thrombin generation in normal human platelet poor plasma; assay: Calibrated automated thrombography (CAT); type: biochemical
Description: Normal human platelet poor plasma (80 μL) was mixed with aptamer(s) (10 μL) in an Immunolon 2HB U Bottom Mictrotiter 96-well plate (Thermo Labsystems, Franklin, Mass.) and incubated at 37° C. for 5 min. PPP reagent (Diagnostica Stago, Parsippany, N.J.) (either 1 ρM or 5 ρM TF, 20 μL, Diagnostica Stago) was added, and the mixture was incubated at 37° C. for another 5 min. FluCa (Diagnostica Stago) (10 μL) was added to initiate the assay and thrombin generation was measured for 60 minutes at 37° C. with a Fluoroskan Ascent fluorometer (ThermoLabsystem, Helsinki, Finland) according to the manufacturer's instructions. The amount of thrombin generated was quantified by comparison to an assay with thrombin calibrator reagent (Diagnostica Stago) that has a known activity toward the fluorogenic substrate. The lag time, peak amount of thrombin generated, and endogenous thrombin potential (ETP) were automatically calculated by the Thrombinoscope software (Thrombinoscope BV, the Netherlands).
Thrombin is the final protease formed in the coagulation cascade, and the rate of thrombin generation and the total amount of thrombin generated is associated with blood clot formation and stability (Wolberg, Blood Rev 21:131-42 (2007)). To gain more information about the impact of aptamer anticoagulation on the kinetics of thrombin generation, the individual aptamers were analyzed with calibrated automated thrombography (CAT). The CAT assay measures real-time thrombin generation in plasma by monitoring cleavage of a thrombin-specific fluorogenic substrate in response to TF stimulation (Heruker et al, Pathophysiol Haemost Thromb 33: 4-15 (2003)). The parameters of thrombin generation analyzed include: the lag time (time until thrombin generation begins), the peak (the maximal amount of thrombin generated at a given time) and the endogenous thrombin potential (ETP, the total amount of thrombin generated). Similar to the aPTT and PT clotting assays, all of the individual aptamers dose-dependently impacted the various parameters of thrombin generation (FIG. 21 and Table 1). […] 9.3T minorly impacted all parameters of thrombin generation with the high TF reagent; however, because high concentrations of TF may bypass FIX activity by directly generating FXa, the manufacturer recommends low concentrations of TF for analyzing FIX deficient (i.e, Hemophilia B) plasma in the CAT.

[2] = system: clot formation in whole blood; assay: Thromboelastography (TEG), whole blood stimulated with tissue factor; type: cell-based, human
Description: (§1) Blood was drawn from healthy, consented volunteers under a Duke University Institutional Review Board approved protocol and anticoagulated with 3.2% sodium citrate. Whole blood (320 μL) was mixed with anticoagulant (heparin or aptamers) (10 μL) and kaolin (Haemonetics, Niles, Ill.) (10 μL) or CAT PRP reagent (Diagnostica Stago, 0.33 ρM TF final) (10 μL) was added to stimulate clotting. CaCl2 (20 μL) was immediately added to overcome the citrate, the mixture was added to a plain disposable plastic TEG cup (Haemonetics), and the assay was run according to the manufacturer's instructions. Clot formation at 37° C. was measured with a Thromboelastograph Analyzer (Haemonetics, Niles, Ill.) until a stable clot was formed (i.e., a maximum amplitude was reached) or for three hours with the aptamer combinations. The time lag time, α-angle, and maximum amplitude were automatically calculated by the TEG® Analytical Software version 4.2.3 (Haemonetics).
Because kaolin stimulates blood via the intrinsic pathway, it is unlikely that 7S-1 (FVIIa aptamer) would impair clot formation with this type of stimulation; thus, this aptamer was tested in a modified TEG with TF stimulation. CAT platelet rich plasma (PRP) reagent (TF) was diluted to a final concentration of 0.33 ρM TF to stimulate clotting.

[3] = system: clot formation in whole blood; assay: Thromboelastography (TEG), whole blood stimulated with kaolin; type: cell-based, human
Description: as §1
Although the aPTT, PT, and CAT assays provide basic information about dose-dependent anticoagulation, these assays are performed in an environment that lacks platelets. Platelets play a crucial role in clot formation by providing a membrane surface upon which the clotting factors assemble, by aggregating and becoming physically incorporated into the blood clot, and by releasing internal stores of agonists that amplify coagulation (Monroe et al, Arterioscler Thromb Vasc Biol 22:138 1-9 (2002)). Therefore, a study was made of aptamer anticoagulation with thromboelastography (TEG), which provides real-time information about the kinetics of clot formation in whole blood (Reikvam et al, Transfus Apher Sci; 40:119-23 (2009). The TEG assay uses mechanical motion to quantify the physical properties of clot formation, including the lag time (the time until clot formation), the α-angle (the rate of clot formation), and the maximum amplitude (the mechanical strength of the clot formed).

[4] = system: clot formation in normal human platelet poor plasma; assay: Activated partial thromboplastin time (aPTT) plasma clotting assay; type: biochemical; settings: aPTT
Description: The activated partial thromboplastin time (aPTT) and prothrombin time (PT) assays were performed on a model ST4 mechanical coagulometer (Diagnostica Stago, Parsippany, N.J.) as previously described (Bompiani et al, J Thromb Haemost 10:870-80 (2012)). For the aPTT, 50 μL of normal human platelet poor plasma (PPP) was incubated with 50 μL TriniClot aPTT S (Trinity BioTech, Bray, Co Wicklow, Ireland) at 37° C. for 5 min. Aptamer(s) (5 μL) was added, and the mixture was incubated at 37° C. for another 5 min, and CaCl2 (50 μL) was added to initiate the assay. For the PT, 50 μL of normal human PPP was incubated with 5 μL of aptamer(s) at 37° C. for 5 min. TriniClot PT Excel reagent (Trinity BioTech, Bray, Co Wicklow, Ireland) (100 μL) was added to initiate the reaction. Assays with a combination of two aptamers contain an equimolar concentration of each individual aptamer, and the data shown are the total RNA concentration.
To compare the anticoagulant effect of these four aptamers, dose-response titrations were performed in several clinical plasma-based clotting assays. The activated partial thromboplastin time (aPTT) and prothrombin time (PT) are plasma clotting assays that are clinically used to probe for abnormalities in the intrinsic and extrinsic coagulation pathways, respectively (Van Cott et al, editors. Jacobs & DeMott laboratory test handbook. 5th ed. Hudson Ohio: Lexi-Comp. p. 327-58 (2001)). These relatively simple assays measure the time until clot formation in platelet poor plasma (PPP) in response to either robust tissue factor (TF), or contact stimulation via negatively charged surfaces (i.e., silica, kaolin, celite). […] At high concentrations, the prothrombin aptamer (R9D-14T) was the most robust anticoagulant and inhibited greater than 96% of prothrombin activity in the aPTT and PT. At 4 μM, R9D-14T increased the aPTT clotting time approximately 18-fold and the PT clotting time greater than 80-fold (exceeded the assay limit of 999 sec). […] At the same dose, the FIXa aptamer (9.3T) inhibited greater than 99% of FIX activity and increased the aPTT clotting time approximately 5.5-fold, while the FVIIa aptamer (7S-1) increased the PT clotting time 3-fold and inhibited greater than 99% of FVII activity (FIGS. 20A and 20B).

## 11F7Tmut: 11F7T mutant control, SEQ ID NO: 6 (rGrArGrArGfCfCfCfCrArGfCrGrArGrAfUrArAfUrAfCfUfUrGfUrAfCfCfCrGfCfUfCfUfU) [Aptamer 11F7Tmut, reference compound]
[1]; RNA 1,000 nM, TF 5 ρM
  ETP: 1902.67 ± 87.44 nM·min
  Lag-time: 1.39 ± 0.06 min
  Peak: 391.12 ± 13.27 nM
  TTP: 3.73 ± 0.06 min
[2]; RNA 2.00 μM
  Angle: 68.5 ± 0.5 deg
  Lag-time: 3.9 ± 0.2 min
  Max. Amplitude: 67.9 ± 0.7 mm
[3]; RNA 2.0 μM
  Angle: 69.7 ± 1.2 deg
  Lag-time: 5.1 ± 0.6 min
  Max. Amplitude: 65.8 ± 0.8 mm

## R9D-14Tmut: R9D-14T mutant control, SEQ ID NO: 7 (GGCGGTCGATCACACAGTTCAAACGTAATAAGCCGGCGTACGAGGCAGACGACTCGCC; 2'-fluoro at CT, RNA at AG, all phosphodiester, T or U not given here) [Aptamer R9D-14Tmut, reference compound]
[1]; RNA 5,000 nM, TF 5 ρM
  ETP: 1564.33 ± 121.22 nM·min
  Lag-time: 1.44 ± 0.06 min
  Peak: 312.12 ± 8.89 nM
  TTP: 3.66 ± 0.17 min
[2]; RNA 5.00 μM
  Angle: 72.3 ± 0.7 deg
  Lag-time: 2.7 ± 0.2 min
  Max. Amplitude: 66.1 ± 1.4 mm
[3]; RNA 5.0 μM
  Angle: 56.0 ± 4.8 deg
  Lag-time: 6.5 ± 0.4 min
  Max. Amplitude: 61.9 ± 4.0 mm

## 9.3Tmut: 9.3T mutant control, SEQ ID NO: 4 (AUGGGGACUGUGCCGCGUAAUGCUGCCUCCCCAU; 2'-fluoro at CU, RNA at AG, backbone not given here) [Aptamer 9.3Tmut, reference compound]
[1]; RNA 120 nM, TF 1 ρM
  ETP: 1446.83 ± 59.97 nM·min
  Lag-time: 3.11 ± 0.20 min
  Peak: 219.57 ± 33.93 nM
  TTP: 7.17 ± 0.59 min
[1]; RNA 120 nM, TF 5 ρM
  ETP: 1820.83 ± 80.77 nM·min
  Lag-time: 1.89 ± 0.06 min
  Peak: 355.41 ± 17.21 nM
  TTP: 4.34 ± 0.10 min
[2]; RNA 1.00 μM
  Angle: 69.0 ± 4.8 deg
  Lag-time: 2.7 ± 0.4 min
  Max. Amplitude: 67.2 ± 1.6 mm
[3]; RNA 2.0 μM
  Angle: 58.6 ± 7.8 deg
  Lag-time: 7.3 ± 2.1 min
  Max. Amplitude: 60.1 ± 5.8 mm

B1: 4G dogbone 4: truncate of FX/FII dogbone 4, SEQ ID NO: 24 (nucleic acid)
chain: GGGGAUCACACAGUUCAAACGUAAUAAGCCAAUGUACGAGGCAGACCCCAAAGCCCCAGCGAGAUAAUACUUGGCCCCGCU
modifications: listed as RNA, chemistry not given here
[4]
  anti-coagulation activity of dogbone 4 truncates (in words): best anti-coagulation activity of the truncates

B2: FIX/FX dogbone 2: bifunctional FIX/FX dogbone aptamer, SEQ ID NO: 16 (nucleic acid)
chain: GGAUGGGGACUAUACCGCGUAAUGCUGCCUCCCCAUCCAAAACGUAGAGAGCCCCAGCGAGAUAAUACUUGGCCCCGCUCUUUACGU
modifications: listed as RNA, chemistry not given here
[4]
  anti-coagulation of dogbones compared to the free combination of aptamers (in words): equal anti-coagulation compared to the free combination

B3: FX/FII dogbone 1: bifunctional FX/FII dogbone aptamer, SEQ ID NO: 19 (nucleic acid)
chain: GGGGCGGUCGAUCACACAGUUCAAACGUAAUAAGCCAAUGUACGAGGCAGACGACUCGCCCCAAAACGUAGAGAGCCCCAGCGAGAUAAUACUUGGCCCCGCUCUUUACGU
modifications: listed as RNA, chemistry not given here
[4]
  anti-coagulation of dogbones compared to the free combination of aptamers (in words): better anti-coagulation when compared to the free aptamers

B4: 7S-1mut: 7S-1 mutant control, SEQ ID NO: 8 (nucleic acid)
chain: rGrGrGrArGrGrAfCrGrAfUrGfCrGrGrAfCfUfCfCfUfCfCrArArGfCrGrAfCfCrArAfCrAfUfCrGrGfUfCfUfUrAfUfUfUfCrArGrAfUfCrArAfCrArGrAfCrGrAfCfUfCrGfCfUrGrArGrGrAfUfCfCrGrArGrA
[1]; RNA 30 nM, TF 5 ρM
  ETP: 1890.67 ± 23.55 nM·min
  Lag-time: 1.73 ± 0.06 min
  Peak: 357.63 ± 7.76 nM
  TTP: 4.45 ± 0.06 min
[2]; RNA 0.50 μM
  Angle: 67.8 ± 3.8 deg
  Lag-time: 3.1 ± 0.1 min
  Max. Amplitude: 67.2 ± 0.7 mm

B5: FIX/FX dogbone 1: bifunctional FIX/FX dogbone aptamer, SEQ ID NO: 15 (nucleic acid)
chain: GGUGGAUGGGGACUAUACCGCGUAAUGCUGCCUCCCCAUCCACCAAAUAGCACGUAGAGAGCCCCAGCGAGAUAAUACUUGGCCCCGCUCUUUACGUGCUA
modifications: listed as RNA, chemistry not given here
[4]
  anti-coagulation of dogbones compared to the free combination of aptamers (in words): equal anti-coagulation compared to the free combination

B6: 3G dogbone 4: truncate of FX/FII dogbone 4, SEQ ID NO: 23 (nucleic acid)
chain: GGGUCGAUCACACAGUUCAAACGUAAUAAGCCAAUGUACGAGGCAGACGACCCAAAGCCCCAGCGAGAUAAUACUUGGCCCCGCU
modifications: listed as RNA, chemistry not given here
[4]
  anti-coagulation activity of dogbone 4 truncates (in words): best anti-coagulation activity of the truncates

B7: FX/FII dogbone 3: bifunctional FX/FII dogbone aptamer, SEQ ID NO: 21 (nucleic acid)
chain: GGGUCGAUCACACAGUUCAAACGUAAUAAGCCAAUGUACGAGGCAGACGACUCCAAAAGCCCCAGCGAGAUAAUACUUGGCCCCGCU
modifications: listed as RNA, chemistry not given here
[4]
  anti-coagulation of dogbones compared to the free combination of aptamers (in words): better anti-coagulation when compared to the free aptamers
